Measured values from patent publication US20100081679A1, “DIAMINOPYRIMIDINES AS FUNGICIDES” (Bayer CropScience AG, priority 2007, published 2010).
Marks after values point to notes of the source that are not given here.

Test: logP determination via retention times, calibrated with unbranched alkan-2-ones
Type: physicochemical
Conditions: HPLC on reversed-phase C 18, EEC Directive 79/831 Annex V.A8; method *: 40° C., 0.1% aqueous formic acid and acetonitrile, linear gradient 10% to 95% acetonitrile

| logP | Compound |
| --- | --- |
| 2.70* | COc1cc(Nc2ncc(Br)c(NC3CC3)n2)ccc1Cl [compound 532] |
| 2.09* | CCOC(=O)Cc1ccc(Nc2ncc(Cl)c(NCC3CC3)n2)cc1 [compound 539] |
| 1.66* | COC(=O)Nc1cccc(Nc2ncc(Cl)c(NCC3CC3)n2)c1 [compound 515] |
| 1.53* | CN1CC(=O)N(c2ccc(Nc3ncc(Cl)c(NCC4CC4)n3)cc2)C1=O [compound 523] |
| 1.58* | CC(=O)Cc1ccc(Nc2ncc(Br)c(NC3CC3)n2)cc1 [compound 565] |
| 2.24* | C#Cc1cccc(Nc2ncc(Cl)c(NC3CC3)n2)c1 [compound 502] |
| 3.1* | FC(F)(F)Oc1ccc(Nc2ncc(Br)c(NCC3CC3)n2)cc1 [compound 476] |
| 2.46* | CC1CC(C)CN(c2cccc(Nc3ncc(Cl)c(NC4CC4)n3)c2)C1 (stereo not drawn) [compound 528] |
| 3.55* | FC(F)(F)c1cnc(Nc2cccc(N3CCCC3)c2)nc1NC1CC1 [compound 564] |
| 1.85* | CC(=O)c1cc(Nc2ncc(Cl)c(NCC3CC3)n2)ccc1O [compound 553] |
| 1.68* | CC(=O)Nc1ccc(Nc2ncc(Br)c(NCC3CC3)n2)cc1Cl [compound 479] |
| 1.96* | Fc1ccc(Nc2ncc(Br)c(NC3CC3)n2)cc1 [compound 499] |
| 1.83* | CCN(C(C)=O)c1ccc(Nc2ncc(Br)c(NCC3CC3)n2)cc1 [compound 480] |

| Compound | logP |
| --- | --- |
| CNC(=O)Oc1cccc(Nc2ncc(Cl)c(NCC3CC3)n2)c1 [compound 514] | 1.61* |

Same assay, conditions: HPLC on reversed-phase C 18, method **: 43° C.; 0.1% aqueous phosphoric acid and acetonitrile; linear gradient 10% to 95% acetonitrile

| logP | Compound |
| --- | --- |
| 1.61** | O=C1CCCN1c1cc(Nc2ncc(Br)c(NC3CC3)n2)ccc1F [compound 771] |
| 1.64** | CC(=O)Nc1ccc(Nc2ncc(C(F)(F)F)c(NC3CC3)n2)cc1 [compound 956] |

Same assay, conditions: HPLC on reversed-phase C18, method **: 43° C.; mobile phase 0.1% aqueous phosphoric acid and acetonitrile; linear gradient 10% to 95% acetonitrile

| logP | Compound |
| --- | --- |
| 1.99** | CC(C)(C)NS(=O)(=O)Cc1ccc(Nc2ncc(Cl)c(NC3CC3)n2)cc1 [compound 326] |
| 2.3** | CC(C)(C)NS(=O)(=O)c1ccc(Nc2ncc(Cl)c(NC3CC3)n2)cc1 [compound 306] |
| 1.58** | O=S(=O)(Cc1ccc(Nc2ncc(Cl)c(NC3CC3)n2)cc1)NC1CC1 [compound 334] |

Same assay, conditions: HPLC on reversed-phase C18, method *: 40° C., 0.1% aqueous formic acid and acetonitrile, linear gradient 10% to 95% acetonitrile

| Compound | logP |
| --- | --- |
| C#CCS(=O)(=O)c1ccc(Nc2ncc(Cl)c(NC3CC3)n2)cc1 [compound 161] | 2.21* |
| O=C1OCCN1c1ccc(Nc2ncc(Br)c(NC3CC3)n2)cc1 [compound 175] | 1.37* |
| CC(=O)c1cc(Nc2ncc(Cl)c(NC3CC3)n2)ccc1O [Example 101] | 1.65* |

Further lines, results first:

| logP | Compound |
| --- | --- |
| 1.54* | C=CC(=O)Nc1cccc(Nc2ncc(Br)c(NC3CC3)n2)c1 [compound 754] |
| 3.33* | N#Cc1cc(Nc2ncc(Cl)c(NC3CC3)n2)c(F)cc1Cl [compound 936] |
| 3.04* | O=C(c1ccc(Nc2ncc(C(F)(F)F)c(NCC3CC3)n2)cc1)N1CCCCC1 [compound 704] |
| 3.03* | Fc1cc(Cl)ccc1Nc1ncc(Cl)c(NC2CC2)n1 [compound 947] |
| 2.02* | O=C(Nc1ccc(Nc2ncc(Cl)c(NCC3CC3)n2)cc1)C(F)(F)F [compound 672] |
| 1.83* | CC(=O)CCc1cccc(Nc2ncc(Br)c(NC3CC3)n2)c1 [compound 967] |
| 3.29* | Clc1cnc(Nc2ccc(C3CCCCC3)cc2)nc1NC1CC1 [compound 952] |
| 2.37* | CO/N=C(\C)c1cccc(Nc2ncc(Cl)c(NC3CC3)n2)c1 [compound 732] |
| 2.78* | COCc1cccc(Nc2ncc(C(F)(F)F)c(NC3CC3)n2)c1 [compound 721] |
| 2.36* | FC(F)Oc1ccccc1Nc1ncc(Cl)c(NC2CC2)n1 [compound 943] |
| 2.43* | N#Cc1ccc(Nc2ncc(Br)c(NC3CC3)n2)cc1 [compound 744] |
| 1.51* | CS(=O)(=O)Nc1ccc(Nc2ncc(Cl)c(NCC3CC3)n2)cc1 [compound 697] |
| 2.4* | COC(=O)c1ccc(Nc2ncc(Br)c(NC3CC3)n2)cc1 [compound 762] |
| 1.41* | Oc1ccc(Nc2ncc(Br)c(NC3CC3)n2)cc1F [compound 764] |
| 2.55* | CCC(=O)c1ccc(Nc2ncc(Cl)c(NCC3CC3)n2)cc1 [compound 677] |

Same assay, conditions: HPLC on reversed-phase C18, method *: 40° C.; mobile phase 0.1% aqueous formic acid and acetonitrile; linear gradient 10% to 95% acetonitrile

| logP | Compound |
| --- | --- |
| 1.9* | CS(=O)(=O)c1ccc(Nc2ncc(Br)c(NC3CC3)n2)cc1 [compound 345] |
| 2.66* | FC(F)Oc1cccc(Nc2ncc(Br)c(NC3CC3)n2)c1 [compound 332] |
| 1.85* | COc1ccccc1Nc1ncc(Cl)c(NC2CC2)n1 [compound 282] |
| 1.18* | COc1cc(Nc2ncc(Cl)c(NC3CC3)n2)ccc1NC(C)=O [compound 280] |
| 2.25* | CCC(=O)c1cccc(Nc2ncc(Cl)c(NC3CC3)n2)c1 [compound 304] |
| 2.17* | CCOC(=O)C1(Nc2nc(Nc3ccccc3)ncc2Cl)CC1 [compound 315] |
| 2.18* | CSc1ccc(Nc2ncc(Br)c(NC3CC3)n2)cc1 [compound 353] |
| 2.02* | CC(C)(C)OC(=O)NCc1ccc(Nc2ncc(Br)c(NC3CC3)n2)cc1 [compound 329] |
| 1.81* | CCCNS(=O)(=O)Cc1cccc(Nc2ncc(Cl)c(NC3CC3)n2)c1 [compound 335] |

Same assay, conditions: HPLC on reversed-phase C18 column (EEC Directive 79/831 Annex V.A8); method *: 40° C.; 0.1% aqueous formic acid and acetonitrile; linear gradient 10% to 95% acetonitrile

| logP | Compound |
| --- | --- |
| 2.53* | COc1cc(Nc2ncc(Cl)c(NC3CC3)n2)ccc1Cl [compound 256] |
| 3.41* | CC(C)(C)C(=O)Cc1ccc(Nc2ncc(C(F)(F)F)c(NCC3CC3)n2)cc1 [compound 210] |
| 1.99* | CCOC(=O)Cc1ccc(Nc2ncc(Cl)c(NC3CC3)n2)cc1 [compound 247] |
| 2.57* | COc1cc(Nc2ncc(C(F)(F)F)c(NCC3CC3)n2)cc(OC)c1OC [compound 217] |
| 2.23* | O=C1CCCN1c1cccc(Nc2ncc(C(F)(F)F)c(NC3CC3)n2)c1 [compound 255] |

Same assay, conditions: HPLC reversed-phase C 18, EEC Directive 79/831 Annex V.A8; method *: 40° C., 0.1% aqueous formic acid and acetonitrile, linear gradient 10% to 95% acetonitrile

| logP | Compound |
| --- | --- |
| 1.57* | O=C(c1cccc(Nc2ncc(Cl)c(NC3CC3)n2)c1)N1CCCC1 [compound 848] |
| 1.18* | CC1COC(=O)N1c1cccc(Nc2ncc(F)c(NC3CC3)n2)c1 (stereo not drawn) [compound 802] |
| 1.2* | O=C1COCCN1c1cccc(Nc2ncc(Cl)c(NC3CC3)n2)c1 [compound 791] |
| 1.75* | N#CCc1cccc(Nc2ncc(Br)c(NC3CC3)n2)c1 [compound 794] |

Same assay, conditions: method **: HPLC reversed-phase C 18, 43° C., 0.1% aqueous phosphoric acid and acetonitrile, linear gradient 10% to 95% acetonitrile

| logP | Compound |
| --- | --- |
| 1.45** | Fc1cnc(Nc2ccccc2)nc1NC1CC1 [compound 42] |
| 0.95** | NS(=O)(=O)c1ccc(Nc2ncc(F)c(NC3CC3)n2)cc1 [compound 46] |
| 2.63** | NS(=O)(=O)c1cc(Nc2ncc(Cl)c(NCC3CC3)n2)cc(C(F)(F)F)c1 [Example 18] |
| 1.99** | CC(=O)c1ccc(Nc2ncc(Cl)c(NC3CC3)n2)cc1.Cl [Example 45] |
| 1.51** | NS(=O)(=O)c1cccc(Nc2ncc(Cl)c(NCC3CC3)n2)c1 [Example 16] |

Same assay, conditions: method **: HPLC reversed-phase C 18, temperature 43° C.; mobile phase 0.1% aqueous phosphoric acid and acetonitrile; linear gradient 10% to 95% acetonitrile

| logP | Compound |
| --- | --- |
| 2.27** | CC(=O)Nc1ccc(Nc2ncc(C(F)(F)F)c(NC3CC3)n2)cc1Cl [compound 648] |
| 2.72** | CC(=O)c1cccc(Nc2ncc(C(F)(F)F)c(NC3CC3)n2)c1 [compound 657] |

Same assay, conditions: method *: HPLC reversed-phase C18, 40° C., 0.1% aqueous formic acid and acetonitrile, linear gradient 10% to 95% acetonitrile

| logP | Compound |
| --- | --- |
| 2.1* | CSc1ccc(Nc2ncc(Cl)c(NC3CC3)n2)cc1 [Example 69] |
| 2.8* | FC(F)C(F)(F)Oc1ccc(Nc2ncc(Br)c(NCC3CC3)n2)cc1 [compound 462] |
| 2.18* | C=CCS(=O)(=O)c1ccc(Nc2ncc(Cl)c(NC3CC3)n2)cc1 [Example 61] |
| 1.34* | COc1ccc(Nc2ncc(Cl)c(NC3CC3)n2)cn1 [compound 92] |
| 2.33* | N#Cc1ccc(Nc2ncc(Cl)c(NC3CC3)n2)cc1 [compound 374] |
| 1.99* | CCOC(=O)Nc1cccc(Nc2ncc(Br)c(NCC3CC3)n2)c1 [compound 428] |
| 2.18* | O=S(=O)(Cc1ccc(Nc2ncc(Cl)c(NC3CC3)n2)cc1)Nc1ccccc1 [compound 369] |
| 1.58* | O=C1CCCCN1Cc1cccc(Nc2ncc(Cl)c(NC3CC3)n2)c1 [compound 373] |

Same assay, conditions: method *: HPLC reversed-phase C 18, temperature 40° C.; mobile phase 0.1% aqueous formic acid and acetonitrile; linear gradient 10% to 95% acetonitrile

| Compound | logP |
| --- | --- |
| O=C1CCCCN1c1ccc(Nc2ncc(Cl)c(NC3CC3)n2)cc1 [compound 569] | 1.47* |
| CNC(=O)c1ccc(Nc2ncc(F)c(NC3CC3)n2)cc1 [compound 584] | 1.05* |

Next, values leading:

| logP | Compound |
| --- | --- |
| 2.18*; | CC(=O)Nc1ccc(Nc2ncc(C(F)(F)F)c(NC3CC3)n2)cc1Cl [compound 648] |
| 2.57*; | CC(=O)c1cccc(Nc2ncc(C(F)(F)F)c(NC3CC3)n2)c1 [compound 657] |
| 2.58* | N#Cc1cnc(Nc2ccc(F)cc2)nc1NC1CC1 [compound 616] |
| 1.61* | O=S(=O)(c1cccc(Nc2ncc(F)c(NC3CC3)n2)c1)N1CCCCC1 [compound 588] |
| 2.63* | CC(C)c1cccc(Nc2ncc(Cl)c(NC3CC3)n2)c1 [compound 633] |
| 1.64* | CNC(=O)c1cccc(Nc2ncc(C#N)c(NC3CC3)n2)c1 [compound 608] |

Same assay, conditions: method *: HPLC, reversed-phase C 18, 40° C., mobile phase 0.1% aqueous formic acid and acetonitrile, linear gradient from 10% to 95% acetonitrile

| logP | Compound |
| --- | --- |
| 1.97* | CC(C)Oc1ccc(Nc2ncc(Cl)c(NC3CC3)n2)cc1 [compound 989] |
| 3.25* | CCCS(=O)(=O)c1cccc(Nc2ncc(C(F)(F)F)c(NCC3CC3)n2)c1 [compound 1068] |

Same assay, conditions: pH 2.3; read-out: logP (pH2.3)

| chromatographic logP | Compound |
| --- | --- |
| 1.97 | Clc1ncc(Br)c(NC2CC2)n1 [5-bromo-2-chloro-N-cyclopropylpyrimidine-4-amine] |
